What was measured:
[1] = system: OVCAR8, SKOV3, and ID8 cells; assay: Cell cycle analysis (propidium iodide, flow cytometry); assay type: cell-based; conditions: 12 h treatment; PI-stained OVCAR8, SKOV3, ID8
Protocol: (§1) To determine whether proliferation inhibition was the dominant factor driving the reduction in OC viability seen with AzP treatment, we used propidium iodide and annexin-FITC stains with flow cytometry to measure the distribution of cell cycle phases after treatment. […] Furthermore, in the Boyden chamber assay for cell migration, SU093 inhibited cell migration by 40-46% (1 μM, P<0.05) in different OC cell lines.
Cell cycle analysis: 30,000 OC cells were plated in each well of 12 well plates and incubated for 24 h. […] Both live and dead cells were collected via trypsinization and cell pellets were fixed with 70% ethanol. Fixed cells were stained using propidium iodide (PI) cocktail (80 μg/mL RNase A and 50 μg/mL PI in saponin-EDTA solution) and incubated at 4° C. overnight. Each sample was analyzed using a Guava® easyCyte™ Flow Cytometer (Millipore, Burlington, MA). FlowJo software calculated the % cells in each cell cycle phase.
(§2) FIG. 1A) Lead optimization of SU093 to obtain SU056. FIG. 1B) IC50 values of SU093 and SU056 on various ovarian cancer cells. Clonogenic survival of OC cells treated with SU093 or SU056. […] FIG. 1C) Representative colony formation from respective wells. FIG. 1D) Number of colonies formed after SU093 and SU056 treatment. […] FIG. 1F) Cell cycle distribution of propidium iodide (PI)-stained OVCAR8, SKOV3, and ID8 cells. […] FIG. 1G) Effects of SU093 and SU056 on apoptotic cell death analyzed by Annexin-FITC staining. […] FIG. 1H) Cell migration assay.

[2] = Liver toxicity parameters (ALT, AST, ALKP) in ID8 study; assay type: in vivo, C57BL/6 mice; conditions: 20 mg/kg daily IP, 42 days
Protocol: (§3) These promising results led us to test SU093 and SU056 in vivo. C57BL/6 mice were implanted with 2×10^6 firefly luciferase (luc+)-expressing ID-8 syngeneic ovarian cancer cells subcutaneously. Once the tumors reached 100 mm^3 in size, we began daily intraperitoneal treatment with SU093 and SU056 at 20 mg/kg (vehicle control 30% PEG-300 in saline). Tumor growth was monitored via bioluminescence imaging (IVIS).
(§4) In vivo xenograft model and drug efficacy study: All animal experiments were reviewed and approved by the Animal Care and Use Committee of Stanford University, CA, USA. Luciferase tagged ID8 (2×10^6) or OVCAR8 (5×10^6) cells were implanted into the right flank of 6-7-week-old female C57BL/6 mice and NOD/SCID mice, respectively. Respective treatment began after tumors grew to 100-200 mm^3 diameters. The ID8 syngeneic mice model was treated with a vehicle (30% PEG-300 in saline), 20 mg/kg SU093, and 20 mg/kg SU056 intraperitoneally (IP) daily for 42 days. At the end of treatment, blood was collected from each mouse and analyzed for liver toxicity parameters, including Alanine Aminotransferase (ALT), Aspartate Aminotransferase (AST), and Alkaline Phosphatase (ALKP). […]

ID-8 tumor xenograft = assay: ID8 syngeneic ovarian tumor model, tumor growth and lung metastasis; assay type: in vivo, C57BL/6 mice
Protocol: as §3
Due to prior observation of a significant reduction in the migratory ability of OC cells treated with the two drugs (FIG. 1H), we also measured the effect of drug treatment on ovarian cancer metastases. At the end of above experiment, lungs were fixed and metastatic foci were counted under the dissecting microscope followed by H&E staining.
In vivo xenograft model and drug efficacy study: All animal experiments were reviewed and approved by the Animal Care and Use Committee of Stanford University, CA, USA. Luciferase tagged ID8 (2×10^6) or OVCAR8 (5×10^6) cells were implanted into the right flank of 6-7-week-old female C57BL/6 mice and NOD/SCID mice, respectively. Respective treatment began after tumors grew to 100-200 mm^3 diameters. The ID8 syngeneic mice model was treated with a vehicle (30% PEG-300 in saline), 20 mg/kg SU093, and 20 mg/kg SU056 intraperitoneally (IP) daily for 42 days. At the end of treatment, blood was collected from each mouse and analyzed for liver toxicity parameters, including Alanine Aminotransferase (ALT), Aspartate Aminotransferase (AST), and Alkaline Phosphatase (ALKP). OVCAR8 xenograft mice model was treated with vehicle (30% PEG-300 in saline), 5 mg/kg paclitaxel (once a week), 10 mg/kg SU056 (daily), a combination of paclitaxel (5 mg/kg, once a week) and SU056 (10 mg/kg, daily) for 4 weeks. Mice from both studies were euthanized, the tumor and different organs were collected and fixed in neutral buffered formalin and further processed for immunohistochemical analysis.
FIGS. 2A-2F. SU093 and SU056 inhibit mice ovarian ID-8 tumor xenograft growth in C57BL/6 mice. Mice were subcutaneously injected with ID-8 cells mixed with Matrigel in 1:1 ratio and the drug treatment started when tumors reached 100 mm^3. […] FIG. 2B) Tumor volume/mouse as a function of time. […] FIG. 2C) Tumor weight/mouse at the end of the study. […] FIG. 2D) Liver toxicity parameters at the end of 42 days showing no significant difference between control, SU093, and SU056. FIGS. 2E-2F) Lung metastasis assay. FIG. 2E) H&E staining of the lung (red arrow indicates the metastasis from ID8 xenograft). Scale bar, 250 μm. FIG. 2F) No. of lung metastatic nodules.

ovarian cancer cells = assay: Apoptotic cell death assay (Annexin-FITC); assay type: cell-based; conditions: 24 h treatment; Annexin-FITC staining
Protocol: as §1
Apoptotic cell death assay: Cells were plated and treated as described in cell cycle analysis assay above. Treated cells were incubated for 24 h and both live and dead cells were collected. Cells were stained with Annexin V and PI using FITC Annexin V apoptosis detection kit (BD Pharmingen, San Jose, CA) by following the manufacturer's protocol. Guava® easyCyte™ Flow Cytometer was used to analyze the stained cells.
as §2

OC cell lines = assay: Cell migration assay (Boyden chamber); assay type: cell-based; conditions: different OC cell lines, P<0.05
Protocol: as §1
Cell migration assay: 1×10^5 cells were plated in 60 mm cell culture dishes (Corning-Falcon, #353002) and incubated for 24 h. […] Cells were trypsinized and collected in a conical tube for each plate. Pellets of cells were resuspended, and live cells were counted using a hemocytometer and trypan blue staining. 40,000 live cells were then plated in the upper chamber of 8-micron transwell (Corning-Falcon, #353097) with 0.2% FBS media. The lower chamber contained 10% FBS complete media. […] Each transwell was washed, swiped for non-migrated cells and fixed using 75% ethanol. Fixed transwells were stained with 0.5% crystal violet for 1 h. De-stained transwell membranes were cut and mounted on a slide using DPX mounting media. Migrated cells were counted under the microscope at 100× magnification.
FIG. 1A) Lead optimization of SU093 to obtain SU056. […] FIG. 1G) Effects of SU093 and SU056 on apoptotic cell death analyzed by Annexin-FITC staining. […]

OVCAR-8 and ID8 cells = assay: Clonogenic assay; assay type: cell-based
Protocol: (§5) We tested the relationship between AzPs dose and the viability of human ovarian cancer cell lines and the ID8 murine ovarian cancer cell line.
(§6) Clonogenic assay: 300 suspended OC cells were plated in each well of 12 well plates (Corning-Costar, #3598) and incubated for 24 h for attachment. The media was replaced after 24 h with media containing a respective concentration of the test compound and incubated for 5-8 days until visible colonies appeared in vehicle-treated wells. Cells were then washed and fixed with 2% paraformaldehyde, followed by washing and staining with 0.5% Crystal violet for 1 h. Cells were de-stained using DI water and allowed to dry. Colonies were counted under the microscope at 100× magnification.
as §2

SKOV-3 = assay: Clonogenic assay; assay type: cell-based, human; conditions: 0.5 & 1 μM
Protocol: as §5, §6, §2

YB-1 and MDR1 = assay: Immunoblotting of YB-1 and MDR1 in OVCAR8 cells; assay type: cell-based, human; conditions: paclitaxel 0.5 nM, SU056 0.5 μM, 12 h
Protocol: Immunoblotting: Once 70% confluency of OC cells plated in 100 mm cell culture was obtained, dishes were treated with a respective concentration of SU056 for a respective time. At the end of treatment, cells were collected and lysed using M-PER™ lysis solution (Thermo Scientific, #78503), supplemented with Halt protease and phosphatase inhibitor cocktail (Thermo Scientific, #78440). An equal amount (40-60 μg) of proteins was resolved using 8%/10%/12% SDS-PAGE gel electrophoresis. Proteins were then transferred onto a PVDF membrane (Bio-Rad, #162-01277). Blocked membranes were incubated with respective primary antibody solution prepared in 5% nonfat milk TPBS at 4° C. overnight with gentle rocking. Primary antibody-probed membranes were washed and probed with respective HRP-conjugated secondary antibody. Proteins were detected using Immobilon® Crescendo Western HRP Substrate (Millipore, Germany) and visualized on an IVIS Lumina Imaging System (Perkin Elmer, Waltham, MA). […]

OVCAR8 OC tumors = assay: OVCAR8 xenograft combination study; assay type: in vivo, NOD-SCID mice; conditions: SU056 10 mg/kg daily, paclitaxel 5 mg/kg weekly, intraperitoneal, 28 days
Protocol: In a pharmacokinetics study in vivo, injection of 20 mg/kg SU056 led to a maximum serum concentration of 28.19 μg/mL with a T1/2 of ˜45 min. We then tested the synergism of paclitaxel and SU056 co-treatment in vivo in NOD-SCID mice implanted with OVCAR8 OC tumors as described above. Mice were given daily treatment of SU056 (10 mg/kg) and weekly treatment of paclitaxel (5 mg/kg) were administered intraperitoneally. […] This likely resulted from decreased paclitaxel efflux from OVCAR8 cells in the presence of SU056.
as §4

| SMILES | cell cycle distribution [1] | impact on blood chemistry indicators (AST, ALT, alkaline phosphatase) [2] | reduction in tumor weight (ID-8 tumor xenograft; 20 mg/kg daily IP, at 42 days) | tumor progression vs vehicle control (ID-8 tumor xenograft; 20 mg/kg daily intraperitoneal, bioluminescence imaging) | apoptotic cell death (ovarian cancer cells) | inhibition at 1 µM (OC cell lines) | OC colony formation (OVCAR-8 and ID8 cells) | colony formation, effect on SKOV-3 (SKOV-3) | expression of YB-1 and MDR1 (Western blot) (YB-1 and MDR1) | OC tumor growth (OVCAR8 OC tumors) |
| --- | --- | --- | --- | --- | --- | --- | --- | --- | --- | --- |
| COc1ccc2c(c1)N(CCO)C1=C(C(=O)OC1)C2c1cccc(F)c1 (stereo not shown) [SU093, 9-(3-fluorophenyl)-4-(2-hydroxyethyl)-6-methoxy-4,9-dihydrofuro[3,4-b]quinolin-1(3H)-one, reference compound] | G1 phase arrest | no significant impact | 1.5 fold | significantly delay the tumor progression | induce apoptotic cell death | 40 to 46% | decreased OC colony formation in a dose-dependent and significant manner | moderately affect | – | – |
| CC(=O)O[C@H]1C(=O)[C@@]2(C)[C@H]([C@H](OC(=O)c3ccccc3)[C@]3(O)C[C@H](OC(=O)[C@H](O)[C@@H](NC(=O)c4ccccc4)c4ccccc4)C(C)=C1C3(C)C)[C@]1(OC(C)=O)CO[C@@H]1C[C@@H]2O [paclitaxel, reference compound] | – | – | – | – | – | – | – | – | upregulate the expression of YB-1 and MDR1 | significant reduction in OC tumor growth |
